The source of these data is patent publication US20260166159A1, “KRAS G12D DEGRADATION AGENT, AND PREPARATION METHOD AND USE THEREFOR” (LEADINGTAC PHARMACEUTICAL (SHAOXING) CO., LTD., priority 2022, published 2026).

By IC50 is commonly meant the midpoint of a concentration-inhibition curve. Usually DC50 stands for the concentration at which degradation of the target reaches its halfway point. A word on the Dmax: it is the largest share of the target that was removed.

The target in test [1] is T1, Human KRAS G12D 6His-tagged (Homo sapiens, UniProt P01116, G12D).
T1 construct: purchased PerkinElmer
T1 sequence (P01116 1-188 isoform P01116-2 G12D): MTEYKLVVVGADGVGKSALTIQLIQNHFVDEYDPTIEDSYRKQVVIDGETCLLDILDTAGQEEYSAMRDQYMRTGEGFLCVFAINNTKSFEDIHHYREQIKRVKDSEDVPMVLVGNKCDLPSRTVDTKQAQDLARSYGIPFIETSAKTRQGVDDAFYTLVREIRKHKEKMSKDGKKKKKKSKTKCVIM
Briefly: KRAS-G12D/GTP binding assay (HTRF). As to the method:
In this method, the inhibitory effects of the compounds on the binding of KRAS-G12D to GTP were assayed by a homogeneous time-resolved fluorescence (HTRF) technique using a KRAS-G12D/GTP binding assay kit (PerkinElmer).
The experimental procedures were as follows (refer to the kit instructions for detailed test methods): the compounds of the present disclosure were each firstly dissolved in DMSO at a concentration of 20 mM, and then diluted in an equal gradient with a buffer in the kit, so that the final concentrations of the test compounds in the reaction system were in a range of 0.02-5000 nM, and the final concentration of DMSO was 0.5%. 5 μL of each compound was incubated with 5 μL of 1× Human KRAS G12D 6His-tagged (PerkinElmer), 5 μL of 1×6His Eu Cryptate Antibody (PerkinElmer), and 5 μL of 1×GTP Red reagent (PerkinElmer) in a 384-well plate (Greiner) at 25° C. for 1 h. After the incubation was completed, the fluorescence intensity of each well was measured at the excitation wavelength of 337 nm and the emission wavelengths of 620 nm and 665 nm with an EnVision microplate reader (PerkinElmer) in the HTRF mode, and Ratio values were calculated using the formula: Ratio=(665 nm/620 nm)×[…]. The inhibition rates of the compounds at each concentration were calculated by comparing the fluorescence intensity ratio with that of the control group. Then non-linear curve fittings for logarithmic concentration-inhibition rate were performed using the GraphPad Prism 8 analysis software, and the IC50 values of the compounds were obtained (Table 2).

Test [2] concerns the target T2, KRAS-G12D (Homo sapiens, UniProt P01116, G12D).
T2 construct: endogenous in cells; host or cells: A-427 (ATCC), AGS, AsPc-1, Panc 04.03
Put plainly: KRAS-G12D degradation assay (Western Blot), A-427 cells. To be noted: A427 cells, 24 h, class symbols; for Dmax: A-427. It is filed as cell-based. The gist of the method:
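Western blotting of lysates (5 μg protein) quantified KRAS against a β-actin reference after 24 h exposure to compound at final 0.03–3000 nM in 0.25% DMSO. Cells were A-427, AGS, AsPc-1 or Panc 04.03, all KRAS G12D, at 5×10^5/well. Degradation versus control yielded DC50 and Dmax.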

The test system of test [3] is KRAS G12D mutant human gastric cancer cell AGS. Put plainly: 3D cell proliferation inhibition assay, AGS. It is filed as cell-based. Particulars: 168 h, 7 days, CTG. In a few lines:
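For this 7-day anchorage-independent assay, 5×10^2 cells per well were exposed to 10000–0.026 nM test compound with 0.2% DMSO at 37 °C. ATP-based luminescence (CTG) gave viability, and percent inhibition versus DMSO controls was curve-fitted to obtain IC50.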

Test [4] concerns KRAS G12D mutant human lung cancer cell A427. Briefly: 3D cell proliferation inhibition assay, A427. It is filed as cell-based. To be noted: A-427, 168 h, A427, 7 days, CTG, class symbols. The text has this: The inhibitory effects of the compounds on 3D cell proliferation were investigated on KRAS G12D mutant human lung cancer cell A427, KRAS G12D mutant human gastric cancer cell AGS, KRAS G12D mutant human metastatic pancreatic cancer cell AsPc-1, KRAS G12D mutant human pancreatic cancer cell Panc 04.03, KRAS G12D mutant human pancreatic cancer cell HPAC, KRAS G12V mutant human lung squamous cell carcinoma cell SW900, and KRAS WT human gastric cancer cell MKN1. The specific procedures were as follows:
10 μL of each compound solution diluted in a gradient was added to corresponding wells of a 96-well low-adsorption microplate (PerkinElmer), so that the final concentrations of the test compounds in the reaction system were in a range of 10000-0.026 nM. The final concentration of DMSO was 0.2%. Then 90 µL of cells were correspondingly seeded into each well to achieve a cell density of 5×10^2 cells/well (the cell density of SW900 was 5×10^1 cells/well, and the cell density of MKN1 was 1×10^3 cells/well). In addition to test wells for the test compounds, both a DMSO control well and a medium control well were set, with the DMSO control well containing DMSO and cells and the medium well containing only a medium. After the sample loading, the 96-well low-adsorption microplate was incubated in an incubator at 37° C. with 5% carbon dioxide for 7 days. After 7 days, the microplate was taken out, and 100 μL of CTG reagent (Promega) was added to each well. The plate was incubated at room temperature for 60 min and read on a microplate reader EnVision by the chemiluminescence program. The inhibition rates of the compounds at each concentration were calculated using the formula for the percentage inhibition of cell proliferation: inhibition rate %=(mean value of DMSO control group−single concentration reading value of compound)/(mean value of DMSO control group−mean value of medium control group)×100. Then non-linear curve fittings for logarithmic concentration-inhibition rate were performed by GraphPad Prism 8, and the IC50 values of the compounds were obtained (Table 5).

A value given as a limit tells only on which side of the number the result lay.

T2 sequence (P01116 1-188 isoform P01116-2 G12D): as above

On to `C#Cc1c(F)ccc2cc(O)cc(-c3ncc4c(N5CC6CCC(C5)N6)nc(OCC5(CN6CCN(CC7CCN(C(=O)c8ccc(Cl)c(N9CCC(=O)NC9=O)c8)CC7)CC6)CC5)nc4c3F)c12` [Example 27, 1-(5-(4-((4-((1-(((4-(3,8-diazabicyclo[3.2.1]octan-3-yl)-7-(8-ethynyl-7-fluoro-3-hydroxynaphthalen-1-yl)-8-fluoropyrido[4,3-d]pyrimidin-2-yl)oxy)methyl)cyclopropyl)methyl)piperazin-1-yl)methyl)piperidine-1-carbonyl)-2-chlorophenyl)dihydropyrimidine-2,4(1H,3H)-dione], for which, in test [1] (class symbols), the IC50 is not above 50 nM. For the same molecule, in test [2], the DC50 fell in the range of 1000 to 10000 nM and the Dmax was in the range of 30 to 50%. In test [3] (class symbols), the IC50 was not above 50 nM.

Turning to `C#Cc1c(F)ccc2cc(O)cc(-c3ncc4c(N5CC6CCC(C5)N6)nc(OCC5(CN6CCC(CN7CCC8(CC7)CCN(C(=O)c7ccc(OC)c(N9CCC(=O)NC9=O)c7)CC8)CC6)CC5)nc4c3F)c12` [Example 38, 1-(5-(9-((1-((1-(((4-(3,8-diazabicyclo[3.2.1]octan-3-yl)-7-(8-ethynyl-7-fluoro-3-hydroxynaphthalen-1-yl)-8-fluoropyrido[4,3-d]pyrimidin-2-yl)oxy)methyl)cyclopropyl)methyl)piperidin-4-yl)methyl)-3,9-diazaspiro[5.5]undecane-3-carbonyl)-2-methoxyphenyl)dihydropyrimidine-2,4(1H,3H)-dione], the IC50 in test [1] (class symbols), in test [4] and in test [3] (class symbols) was not above 50 nM in each case. Moreover, the DC50 in test [2] was not above 50 nM. Also, the Dmax in test [2] fell in the range of 80 to 100%.

With `C#Cc1c(F)ccc2cc(O)cc(-c3ncc4c(N5CC6CCC(C5)N6)nc(OCC5(CN6CC(CN7CCC8(CC7)CCN(C(=O)c7ccc(OC)c(N9CCC(=O)NC9=O)c7)CC8)C6)CC5)nc4c3F)c12` [Example 40, 1-(5-(9-((1-((1-(((4-(3,8-diazabicyclo[3.2.1]octan-3-yl)-7-(8-ethynyl-7-fluoro-3-hydroxynaphthalen-1-yl)-8-fluoropyrido[4,3-d]pyrimidin-2-yl)oxy)methyl)cyclopropyl)methyl)azetidin-3-yl)methyl)-3,9-diazaspiro[5.5]undecane-3-carbonyl)-2-methoxyphenyl)dihydropyrimidine-2,4(1H,3H)-dione], the results for the IC50 in test [1] (class symbols), in test [4] and in test [3] (class symbols) were not above 50 nM, 1000 to 10000 nM and 100 to 500 nM, respectively. The molecule also returned a DC50 in test [2] of 1000 to 10000 nM. For the same molecule, in test [2], the Dmax lay within 30 to 50%.

Consider `Cc1ccc(C(=O)N2CCC3(CCC(CN4CCN(CC5(COc6nc(N7CC8CCC(C7)N8)c7cnc(-c8cccc9cccc(Cl)c89)c(F)c7n6)CC5)CC4)CC3)CC2)cc1N1CCC(=O)NC1=O` [Example 45, 1-(5-(9-((4-((1-(((4-(3,8-diazabicyclo[3.2.1]octan-3-yl)-7-(8-chloronaphthalen-1-yl)-8-fluoropyrido[4,3-d]pyrimidin-2-yl)oxy)methyl)cyclopropyl)methyl)piperazin-1-yl)methyl)-3-azaspiro[5.5]undecane-3-carbonyl)-2-methylphenyl)dihydropyrimidine-2,4(1H,3H)-dione], for which the IC50 in test [1] (class symbols) was not above 50 nM; in test [4] it was 50 to 100 nM; in test [3] (class symbols), 50 to 100 nM. Moreover, the DC50 in test [2] lay in the range of 1000 to 10000 nM. This molecule also yielded a maximal degradation (Dmax) in test [2] of less than 30%.

For `C#Cc1c(F)ccc2cc(O)cc(-c3ncc4c(N5CC6CCC(C5)N6)nc(OCC56CC(CN7CCN(CCC8CCC9(CC8)CCN(C(=O)c8ccc(Cl)c(N%10CCC(=O)NC%10=O)c8)CC9)CC7)(C5)C6)nc4c3F)c12` [Example 56, 1-(5-(9-(2-(4-((3-(((4-(3,8-diazabicyclo[3.2.1]octan-3-yl)-7-(8-ethynyl-7-fluoro-3-hydroxynaphthalen-1-yl)-8-fluoropyrido[4,3-d]pyrimidin-2-yl)oxy)methyl)bicyclo[1.1.1]pentan-1-yl)methyl)piperazin-1-yl)ethyl)-3-azaspiro[5.5]undecane-3-carbonyl)-2-chlorophenyl)dihydropyrimidine-2,4(1H,3H)-dione], the IC50 in test [1] (class symbols) was 50 to 100 nM; in test [4] it was 50 to 100 nM; in test [3] (class symbols) it was not above 50 nM. In test [2], this molecule returned a DC50 not above 50 nM. The same molecule yielded a Dmax in test [2] of 50 to 80%.

Regarding `C#Cc1c(F)ccc2cc(O)cc(-c3ncc4c(N5CC6CCC(C5)N6)nc(OCC5(CN6CC7CC6CN7CC6CCC7(CC6)CCN(C(=O)c6ccc(Cl)c(N8CCC(=O)NC8=O)c6)CC7)CC5)nc4c3F)c12` (stereo not shown) [Example 59, 1-(5-(9-((5-((1-(((4-(3,8-diazabicyclo[3.2.1]octan-3-yl)-7-(8-ethynyl-7-fluoro-3-hydroxynaphthalen-1-yl)-8-fluoropyrido[4,3-d]pyrimidin-2-yl)oxy)methyl)cyclopropyl)methyl)-2,5-diazabicyclo[2.2.1]heptan-2-yl)methyl)-3-azaspiro[5.5]undecane-3-carbonyl)-2-chlorophenyl)dihydropyrimidine-2,4(1H,3H)-dione], the values for the IC50 in test [1] (class symbols), in test [4] and in test [3] (class symbols) were not above 50 nM, 100 to 500 nM and not above 50 nM, respectively. For the same molecule, in test [2], the DC50 lay in the range of 1000 to 10000 nM. The same molecule registered a Dmax in test [2] of less than 30%.

Take `C#Cc1c(F)ccc2cc(O)cc(-c3ncc4c(N5CC6CCC(C5)N6)nc(OCCN5CCN(CCC6CCC7(CC6)CCN(C(=O)c6ccc(Cl)c(N8CCC(=O)NC8=O)c6)CC7)CC5)nc4c3F)c12` [Example 61, 1-(5-(9-(2-(4-(2-((4-(3,8-diazabicyclo[3.2.1]octan-3-yl)-7-(8-ethynyl-7-fluoro-3-hydroxynaphthalen-1-yl)-8-fluoropyrido[4,3-d]pyrimidin-2-yl)oxy)ethyl)piperazin-1-yl)ethyl)-3-azaspiro[5.5]undecane-3-carbonyl)-2-chlorophenyl)dihydropyrimidine-2,4(1H,3H)-dione]: the values for the IC50 in test [1] (numeric values), in test [4] and in test [3] (class symbols) were 21.1 nM, 100 to 500 nM and not above 50 nM, respectively.

With `C#Cc1c(F)ccc2cc(O)cc(-c3ncc4c(N5CC6CCC(C5)N6)nc(OCC5(CN6CCC7(CC6)CCN(C(=O)c6ccc(Cl)c(N8CCC(=O)NC8=O)c6)CC7)CC5)nc4c3F)c12` [Example 85, 1-(5-(9-((1-(((4-(3,8-diazabicyclo[3.2.1]octan-3-yl)-7-(8-ethynyl-7-fluoro-3-hydroxynaphthalen-1-yl)-8-fluoropyrido[4,3-d]pyrimidin-2-yl)oxy)methyl)cyclopropyl)methyl)-3,9-diazaspiro[5.5]undecane-3-carbonyl)-2-chlorophenyl)dihydropyrimidine-2,4(1H,3H)-dione], the IC50 in test [1] (numeric values) is 1.34 nM; in test [3] (numeric values) it was 50.2 nM.
